Test results: patent US20230374071A1, “COMPOSITIONS FOR INDUCING URINARY VOIDING AND DEFECATION” (Dignify Therapeutics, LLC, priority 2020, published 2023)
“Also recorded” adds a separate entry of the source. Starred links: 1 amine or outer side, 2 acyl side, 3 side chain; linkers in the order of their positions; H or OH if unused. Non-standard residues stand in square brackets, D forms with d. Residues, ends and D or L forms follow the SMILES beside them. No end group written: not given here. gc = gamma constrained Gly-(R-gamma-lactam)-Leu moiety, (S)-2-((R)-3-amino)-2-oxopyrrolidin-1-yl)-4-methylpentanoyl, between Val and the C-terminal residue, CC(C)C[C@@H](C(=O)[*:2])N1CC[C@@H](N[*:1])C1=O; Nle = CCCC[C@H](N)C(=O)O; βAla = NCCC(=O)O

Key:
[1] = Aqueous solubility of lyophilized peptide analogs (observed dissolution in Dulbecco's phosphate buffered saline and water); type: physicochemical; settings: observed dissolution in both Dulbecco's phosphate buffered saline and water; 5 mg/mL was the maximum tested
Method: Peptide analogs of NKA were purified to ≥95% purity. […] Compounds A, B, H, and J (SEQ ID NO: 1, 2, 8, and 10) were considered to be aqueous insoluble (<0.1 mg/mL). *Aqueous solubilities of the lyophilized peptide analogs were determined based on the observed dissolution in both Dulbecco's phosphate buffered saline and water. gc=Gly-(R-gamma-lactam)-Leu or (S)-2-((R)-3-amino)-2-oxopyrrolidin-1-yl)-4-methylpantanoyl.

[2] = biological target: T1, human NK2 receptor (hNK2R) (Homo sapiens, UniProt P21452); assay: Intracellular calcium mobilization (Fluo-4 AM, FLIPR) in CHO cells expressing recombinant hNK2R; type: cell-based; settings: for EC50: calcium mobilization, CHO-hNK2 cells, agonist potency, read-out: hNK2R pEC50 (converted); for selectivity for activation of hNK2Rs vs hNK1Rs: from ratios of EC50s; for calcium response at hNK2R: tested at concentrations up to 10 μM
T1 construct: expressed in transfected cells; host or cells: CHO (CHO-hNK2)
T1 sequence (P21452 1-398): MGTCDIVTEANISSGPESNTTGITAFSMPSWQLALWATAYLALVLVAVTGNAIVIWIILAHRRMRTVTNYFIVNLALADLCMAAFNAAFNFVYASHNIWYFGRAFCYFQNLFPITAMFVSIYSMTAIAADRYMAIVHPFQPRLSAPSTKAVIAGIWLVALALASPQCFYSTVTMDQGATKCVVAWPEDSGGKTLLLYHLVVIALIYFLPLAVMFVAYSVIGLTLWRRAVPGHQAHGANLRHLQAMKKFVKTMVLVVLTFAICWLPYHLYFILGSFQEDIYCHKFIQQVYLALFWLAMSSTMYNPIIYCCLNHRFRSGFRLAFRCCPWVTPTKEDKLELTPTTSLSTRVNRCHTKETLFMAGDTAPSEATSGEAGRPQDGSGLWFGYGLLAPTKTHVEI
Method: (§1) Intracellular Calcium Mobilization: The agonist efficacy of compounds A-J at recombinant hNK2R or hNK1Rs expressed in CHO cells was assessed by measuring intracellular calcium mobilization using the calcium-sensitive dye Fluo-4 AM (MOLECULAR PROBES, EUGENE, OR, USA) and a Fluorometric Imaging Plate Reader (FLIPR, MOLECULAR DEVICES, CA, USA). CHO-hNK1 and CHO-hNK2 cells were seeded into black walled clear-bottom 384-well plates) at a density of 10,000 and 15,000 cells per well in 50 μL culture media, respectively, and grown overnight at 37° C. in a humidified CO2-incubator. Cells were washed in washing buffer using a Microplate Washer BIOTEK 384 instrument, leaving 20 μL of buffer per well after the final aspiration. Cells were then incubated at 37° C. with the cytoplasmic Ca^2+ indicator Fluo-4 AM at 2 μM in assay buffer containing 2.5 mM probenecid and 0.02% Pluronic F-127 for 45-60 min (cell loading). Cells were then washed 3 times in washing buffer using a Microplate Washer BIOTEK 384 instrument, leaving 30 μL of buffer in each well after the last wash. Loaded cell plates were transferred to the FLIPR Tetra instrument and calcium responses monitored as described below. A dual read-out FLIPR protocol was used, allowing for characterization of both agonist and antagonist profiles. For quality control, in each compound plate the signal was monitored by evaluating the responses to the reference standards (NKA and Substance P).
(§2) Twelve concentrations of each of the compounds A-J were evaluated for their ability to increase intracellular calcium levels with respect to the agonist reference standard (NKA or Substance P), and the pEC50 value was calculated. […] Concentration response curves of compounds were run in duplicate on two different occasions from the same stock solutions. Test solutions were prepared from 10 mM stock solutions in DMSO and 1 μL of each solution was stamped into V-bottom assay plates containing 49 μL assay buffer. The final concentration of DMSO was 0.5% in each well.
(§3) The results of the intracellular calcium mobilization by in vitro activation of recombinant hNK2Rs or hNK1Rs expressed in CHO cells as described above for the 10 peptide analogs A-J, is shown in Table 3 below. In addition, FIGS. 3A-3C are exemplary graphs showing stimulation of [Ca^2+] response in CHO cells expressing human NK2 or NK1 receptors by Compound A, Compound B, and Compound G, respectively. In FIGS. 3A-3C, data are expressed as % of the maximal response to substance P for NK1 receptors, or NKA for NK2 receptors. Each data point is the mean±SD from duplicate determinations.

[3] = biological target: T2, human NK1 receptor (hNK1R) (Homo sapiens, UniProt P25103); assay: Intracellular calcium mobilization (Fluo-4 AM, FLIPR) in CHO cells expressing recombinant hNK1R; type: cell-based; settings: for EC50: calcium mobilization, CHO-hNK1 cells, agonist potency, read-out: hNK1R pEC50 (converted); for calcium response at hNK1R: tested at concentrations up to 10 μM
T2 construct: expressed in transfected cells; host or cells: CHO (CHO-hNK1)
Method: as §1, §2, §3

[4] = biological target: T3, human neurokinin 1 receptor (human, UniProt P25103 1-407); assay: cell-based or functional assay
[5] = biological target: T4, human neurokinin 2 receptor (human, UniProt P21452 1-398); assay: cell-based or functional assay
T4 sequence (looked up): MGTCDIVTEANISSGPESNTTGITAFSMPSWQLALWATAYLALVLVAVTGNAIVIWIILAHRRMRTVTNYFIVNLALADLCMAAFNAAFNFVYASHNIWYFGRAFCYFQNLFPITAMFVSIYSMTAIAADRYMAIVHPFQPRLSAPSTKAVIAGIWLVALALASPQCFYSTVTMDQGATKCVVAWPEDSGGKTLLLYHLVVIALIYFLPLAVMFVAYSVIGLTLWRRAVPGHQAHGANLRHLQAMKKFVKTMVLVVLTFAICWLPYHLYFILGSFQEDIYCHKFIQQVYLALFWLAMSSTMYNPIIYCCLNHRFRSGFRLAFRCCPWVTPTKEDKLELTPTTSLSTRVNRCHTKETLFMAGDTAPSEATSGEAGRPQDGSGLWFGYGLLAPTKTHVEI

[6] = biological target: T3, human neurokinin 1 receptor; assay: cell-based or functional assay; remark: listed apart in the source
[7] = biological target: T4, human neurokinin 2 receptor; assay: cell-based or functional assay; remark: listed apart in the source

T2 sequence (P25103 whole entry): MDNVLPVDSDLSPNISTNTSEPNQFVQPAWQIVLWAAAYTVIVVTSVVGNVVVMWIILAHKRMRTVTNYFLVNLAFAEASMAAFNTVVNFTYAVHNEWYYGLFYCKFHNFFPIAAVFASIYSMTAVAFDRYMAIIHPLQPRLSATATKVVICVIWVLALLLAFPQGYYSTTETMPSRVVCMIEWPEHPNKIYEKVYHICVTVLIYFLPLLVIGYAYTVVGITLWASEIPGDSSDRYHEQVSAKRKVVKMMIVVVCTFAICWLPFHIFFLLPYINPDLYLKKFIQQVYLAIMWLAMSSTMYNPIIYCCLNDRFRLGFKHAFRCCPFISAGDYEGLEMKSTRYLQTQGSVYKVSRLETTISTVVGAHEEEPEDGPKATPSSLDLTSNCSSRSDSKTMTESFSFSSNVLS
T3 sequence (P25103 whole entry): as above

## CCCC[C@H](NC(=O)[C@H](CC(C)C)NC(=O)CCNC(=O)[C@@H](NC(=O)[C@H](Cc1ccccc1)NC(=O)[C@H](CO)NC(=O)[C@H](CC(=O)O)NC(=O)[C@@H](N)CCCCN)C(C)C)C(N)=O [Compound J, Lys-Asp-Ser-Phe-Val-(β-Ala)-Leu-Nle-NH2] (H-KDSFV[βAla]L[Nle]-NH2; N-terminus assumed)
[1]
  Aqueous solubility: <100 µg/mL
  solubility: < 100 µg/mL
[2]
  EC50: 0.0132 µM
  selectivity for activation of hNK2Rs vs hNK1Rs: > 20 fold
[2]; calcium response, CHO cells, full agonists, read-out: maximal response at hNK2R compared to Neurokinin A
  Emax: ≥ 85%
[3]; CHO, calcium response, CHO cells, full or partial agonists, read-out: maximal response at hNK1R compared to Substance P
  Emax: ≥ 85%
[3]
  EC50: 0.302 µM

## CCCC[C@H](NC(=O)[C@H](CC(C)C)NC(=O)CCNC(=O)[C@@H](NC(=O)[C@H](Cc1ccccc1)NC(=O)[C@H](CO)NC(=O)[C@@H](N)CC(=O)O)C(C)C)C(N)=O [H, Asp-Ser-Phe-Val-(β-Ala)-Leu-Nle-NH2] (H-DSFV[βAla]L[Nle]-NH2; N-terminus assumed)
[1]
  Aqueous solubility: <100 µg/mL
  solubility: < 100 µg/mL
[2]
  EC50: > 10 µM
  selectivity for activation of hNK2Rs vs hNK1Rs: did not exhibit selectivity for hNK2Rs; also recorded: do not exhibit selectivity for hNK2Rs
  calcium response at hNK2R: did not elicit a significant calcium response; also recorded: do not elicit a significant calcium response
[3]
  EC50: > 10 µM
  calcium response at hNK1R: did not elicit a significant calcium response; also recorded: do not elicit a significant calcium response

## CSCC[C@H](NC(=O)[C@H](CC(C)C)NC(=O)CCNC(=O)[C@@H](NC(=O)[C@H](Cc1ccccc1)NC(=O)[C@H](CO)NC(=O)[C@H](CC(=O)O)NC(=O)[C@@H](N)CCCCN)C(C)C)C(N)=O [I, Lys-Asp-Ser-Phe-Val-(β-Ala)-Leu-Met-NH2] (H-KDSFV[βAla]LM-NH2; N-terminus assumed)
[1]
  solubility: ≥ 5000 µg/mL
[2]
  EC50: > 10 µM
  selectivity for activation of hNK2Rs vs hNK1Rs: did not exhibit selectivity for hNK2Rs; also recorded: do not exhibit selectivity for hNK2Rs
  calcium response at hNK2R: did not elicit a significant calcium response; also recorded: do not elicit a significant calcium response
[3]
  EC50: > 10 µM
  calcium response at hNK1R: did not elicit a significant calcium response; also recorded: do not elicit a significant calcium response

B1: Compound H (Asp-Ser-Phe-Val-(β-Ala)-Leu-Nle-NH2) (peptide)
peptide: DSFV[βAla]L[Nle]-NH2
modifications: N-terminus assumed
SMILES: CCCC[C@H](NC(=O)[C@H](CC(C)C)NC(=O)CCNC(=O)[C@@H](NC(=O)[C@H](Cc1ccccc1)NC(=O)[C@H](CO)NC(=O)[C@@H](N)CC(=O)O)C(C)C)C(N)=O
[4]
  hNK1R pEC50 (intracellular calcium mobilization, FLIPR, CHO cells): < 5
[5]
  hNK2R pEC50 (intracellular calcium mobilization, FLIPR, CHO cells): < 5

B2: Compound D (Asp-Lys-Phe-Val-gc-Nle-NH2) (peptide)
peptide: DKFV[gc][Nle]-NH2
modifications: N-terminus assumed
SMILES: CCCC[C@H](NC(=O)[C@H](CC(C)C)N1CC[C@@H](NC(=O)[C@@H](NC(=O)[C@H](Cc2ccccc2)NC(=O)[C@H](CCCCN)NC(=O)[C@@H](N)CC(=O)O)C(C)C)C1=O)C(N)=O
[6]
  maximal calcium response: ≥ 85 % maximal response compared to Substance P
[7]
  maximal calcium response: ≥ 85 % maximal response compared to Neurokinin A
[4]
  hNK1R pEC50 (intracellular calcium mobilization, FLIPR, CHO cells): 6.32
[5]
  NK2R/NK1R selectivity ratio: 132 fold
  hNK2R pEC50 (intracellular calcium mobilization, FLIPR, CHO cells): 8.44

B3: Compound I (Lys-Asp-Ser-Phe-Val-(β-Ala)-Leu-Met-NH2) (peptide)
peptide: KDSFV[βAla]LM-NH2
modifications: N-terminus assumed
SMILES: CSCC[C@H](NC(=O)[C@H](CC(C)C)NC(=O)CCNC(=O)[C@@H](NC(=O)[C@H](Cc1ccccc1)NC(=O)[C@H](CO)NC(=O)[C@H](CC(=O)O)NC(=O)[C@@H](N)CCCCN)C(C)C)C(N)=O
[4]
  hNK1R pEC50 (intracellular calcium mobilization, FLIPR, CHO cells): < 5
[5]
  hNK2R pEC50 (intracellular calcium mobilization, FLIPR, CHO cells): < 5

B4: Compound A (Asp-Ser-Phe-Val-gc-Met-NH2) (peptide)
peptide: XDSFVM
modifications: gc = Gly-(R-gamma-lactam)-Leu, (S)-2-((R)-3-amino)-2-oxopyrrolidin-1-yl)-4-methylpantanoyl moiety, between Val and Met; C-terminal amide (Met-NH2)
[6]
  maximal calcium response: ≥ 85 % maximal response compared to Substance P
[7]
  maximal calcium response: ≥ 85 % maximal response compared to Neurokinin A
[4]
  hNK1R pEC50 (intracellular calcium mobilization, FLIPR, CHO cells): 6.31
[5]
  NK2R/NK1R selectivity ratio: 724 fold
  hNK2R pEC50 (intracellular calcium mobilization, FLIPR, CHO cells): 9.17
